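1) Cells in 96-well plates. 2) Compound, 48 h, 5 concentrations. 3) Linear interpolation between surrounding doses. 4) Unreached endpoint = highest concentration. GI50 marks 50% less growth. Definition used: TGI = concentration required for complete inhibition of growth.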
What was measured:
Assay in all cases: DTP human tumour cell line panel, 48 h
HOP-92 NSCLC = tested on: HOP-92 NSCLC
HS 578T breast = tested on: HS 578T breast
MDA-MB-231 breast = tested on: MDA-MB-231 breast
HOP-62 NSCLC = tested on: HOP-62 NSCLC
COLO 205 colon = tested on: COLO 205 colon
HCC-2998 colon = tested on: HCC-2998 colon
OVCAR-3 ovarian = tested on: OVCAR-3 ovarian
M14 melanoma = tested on: M14 melanoma
SF-268 CNS = tested on: SF-268 CNS
SF-539 CNS = tested on: SF-539 CNS
786-0 renal = tested on: 786-0 renal
IGROV1 ovarian = tested on: IGROV1 ovarian
SNB-19 CNS = tested on: SNB-19 CNS
NCI-H522 lung = tested on: NCI-H522 lung
PC-3 prostate = tested on: PC-3 prostate
HL-60(TB) leukemia = tested on: HL-60(TB) leukemia
UACC-257 melanoma = tested on: UACC-257 melanoma
K-562 leukemia = tested on: K-562 leukemia
NCI/ADR-RES ovarian = tested on: NCI/ADR-RES ovarian
HCT-15 colon = tested on: HCT-15 colon
SF-295 CNS = tested on: SF-295 CNS
DU-145 prostate = tested on: DU-145 prostate
SNB-75 CNS = tested on: SNB-75 CNS
SR leukemia = tested on: SR leukemia
ACHN renal = tested on: ACHN renal
KM12 colon = tested on: KM12 colon
SK-MEL-28 melanoma = tested on: SK-MEL-28 melanoma
T-47D breast = tested on: T-47D breast
A498 renal = tested on: A498 renal
OVCAR-4 ovarian = tested on: OVCAR-4 ovarian
LOX IMVI melanoma = tested on: LOX IMVI melanoma
MOLT-4 leukemia = tested on: MOLT-4 leukemia
HCT-116 colon = tested on: HCT-116 colon
EKVX NSCLC = tested on: EKVX NSCLC
UACC-62 melanoma = tested on: UACC-62 melanoma
RPMI-8226 leukemia = tested on: RPMI-8226 leukemia
NCI-H226 lung = tested on: NCI-H226 lung
MCF7 breast = tested on: MCF7 breast
SK-OV-3 ovarian = tested on: SK-OV-3 ovarian
NCI-H23 lung = tested on: NCI-H23 lung
TK-10 renal = tested on: TK-10 renal
MDA-MB-435 = tested on: MDA-MB-435
BT-549 breast = tested on: BT-549 breast
SW-620 colon = tested on: SW-620 colon
SK-MEL-5 melanoma = tested on: SK-MEL-5 melanoma
U251 CNS = tested on: U251 CNS
NCI-H460 lung = tested on: NCI-H460 lung
UO-31 renal = tested on: UO-31 renal
SN12C renal = tested on: SN12C renal
OVCAR-5 ovarian = tested on: OVCAR-5 ovarian
HT29 colon = tested on: HT29 colon
RXF 393 renal = tested on: RXF 393 renal
A549 NSCLC = tested on: A549 NSCLC
SK-MEL-2 melanoma = tested on: SK-MEL-2 melanoma
OVCAR-8 ovarian = tested on: OVCAR-8 ovarian
CAKI-1 renal = tested on: CAKI-1 renal

In the case of `CCOC(=O)C(=Cc1ccc(-c2ccccc2)cc1)C(=O)OCC`, the GI50 (HOP-92 NSCLC) is reported as 2.42 µM, the TGI (HOP-92 NSCLC) is reported as 6.72 µM and the GI50 (HS 578T breast) is reported as 4.36 µM. The TGI (HS 578T breast) was 25.7 µM, the GI50 (MDA-MB-231 breast) was 2.98 µM and the TGI (MDA-MB-231 breast) was 7.2 µM. The GI50 (HOP-62 NSCLC) was 3.55 µM, the TGI (HOP-62 NSCLC) was 11.3 µM and the GI50 (COLO 205 colon) was 3.45 µM. For the same compound, the TGI (COLO 205 colon) was 11.1 µM, the GI50 (HCC-2998 colon) was 1.89 µM and the TGI (HCC-2998 colon) was 3.54 µM. For the same compound, the GI50 (OVCAR-3 ovarian) was 2.86 µM, the TGI (OVCAR-3 ovarian) was 8.18 µM and the GI50 (M14 melanoma) was 3.14 µM. It also gave a TGI (M14 melanoma) of 11.1 µM, a GI50 (SF-268 CNS) of 3.06 µM and a TGI (SF-268 CNS) of 11 µM. The GI50 (SF-539 CNS) was 1.8 µM, the TGI (SF-539 CNS) was 3.35 µM and the GI50 (786-0 renal) was 2.06 µM. For the same compound, the TGI (786-0 renal) was 4.16 µM, the GI50 (IGROV1 ovarian) was 2.29 µM and the TGI (IGROV1 ovarian) was 5.61 µM. The GI50 (SNB-19 CNS) was 2.21 µM, the TGI (SNB-19 CNS) was 5.14 µM and the GI50 (NCI-H522 lung) was 1.68 µM. The TGI (NCI-H522 lung) was 3.38 µM, the GI50 (PC-3 prostate) was 2.51 µM and the TGI (PC-3 prostate) was 6.09 µM. The GI50 (HL-60(TB) leukemia) was 2.1 µM, the TGI (HL-60(TB) leukemia) was 4.7 µM and the GI50 (UACC-257 melanoma) was 3.53 µM. For the same compound, the TGI (UACC-257 melanoma) was 9.29 µM, the GI50 (K-562 leukemia) was 3.17 µM and the TGI (K-562 leukemia) was over 100 µM. The GI50 (NCI/ADR-RES ovarian) was 3 µM, the TGI (NCI/ADR-RES ovarian) was 8.77 µM and the GI50 (HCT-15 colon) was 1.93 µM. It also gave a TGI (HCT-15 colon) of 4.84 µM, a GI50 (SF-295 CNS) of 5.22 µM and a TGI (SF-295 CNS) of 18.4 µM. For the same compound, the GI50 (DU-145 prostate) was 3.12 µM, the TGI (DU-145 prostate) was 11.1 µM and the GI50 (SNB-75 CNS) was 3.89 µM. The TGI (SNB-75 CNS) was 16.3 µM, the GI50 (SR leukemia) was 3.13 µM and the TGI (SR leukemia) was 38.3 µM. For the same compound, the GI50 (ACHN renal) was 1.83 µM, the TGI (ACHN renal) was 3.42 µM and the GI50 (KM12 colon) was 3.37 µM. For the same compound, the TGI (KM12 colon) was 12.1 µM, the GI50 (SK-MEL-28 melanoma) was 1.95 µM and the TGI (SK-MEL-28 melanoma) was 4.23 µM. For the same compound, the GI50 (T-47D breast) was 2.02 µM, the TGI (T-47D breast) was 4.74 µM and the GI50 (A498 renal) was 3.74 µM. It also gave a TGI (A498 renal) of 12.8 µM, a GI50 (OVCAR-4 ovarian) of 6.3 µM and a TGI (OVCAR-4 ovarian) of 19.9 µM. It also gave a GI50 (LOX IMVI melanoma) of 1.72 µM, a TGI (LOX IMVI melanoma) of 3.21 µM and a GI50 (MOLT-4 leukemia) of 2.46 µM. For the same compound, the TGI (MOLT-4 leukemia) was 6.59 µM, the GI50 (HCT-116 colon) was 2.13 µM and the TGI (HCT-116 colon) was 4.91 µM. For the same compound, the GI50 (EKVX NSCLC) was 10.3 µM, the TGI (EKVX NSCLC) was 22.1 µM and the GI50 (UACC-62 melanoma) was 1.76 µM. For the same compound, the TGI (UACC-62 melanoma) was 3.69 µM, the GI50 (RPMI-8226 leukemia) was 2.43 µM and the TGI (RPMI-8226 leukemia) was 7.04 µM. For the same compound, the GI50 (NCI-H226 lung) was 2.4 µM, the TGI (NCI-H226 lung) was 5.21 µM and the GI50 (MCF7 breast) was 2.69 µM. It also gave a TGI (MCF7 breast) of 13.2 µM, a GI50 (SK-OV-3 ovarian) of 11.7 µM and a TGI (SK-OV-3 ovarian) of 24.8 µM. The GI50 (NCI-H23 lung) was 2.22 µM, the TGI (NCI-H23 lung) was 6.34 µM and the GI50 (TK-10 renal) was 3.91 µM. It also gave a TGI (TK-10 renal) of 13.3 µM, a GI50 (MDA-MB-435) of 2.55 µM and a TGI (MDA-MB-435) of 7.57 µM. For the same compound, the GI50 (BT-549 breast) was 2.64 µM, the TGI (BT-549 breast) was 7.03 µM and the GI50 (SW-620 colon) was 2.07 µM. The TGI (SW-620 colon) was 4.28 µM, the GI50 (SK-MEL-5 melanoma) was 2.39 µM and the TGI (SK-MEL-5 melanoma) was 5.75 µM. It also gave a GI50 (U251 CNS) of 1.68 µM, a TGI (U251 CNS) of 5.67 µM and a GI50 (NCI-H460 lung) of 5.04 µM. The TGI (NCI-H460 lung) was 17.2 µM, the GI50 (UO-31 renal) was 1.71 µM and the TGI (UO-31 renal) was 3.29 µM. It also gave a GI50 (SN12C renal) of 2.02 µM, a TGI (SN12C renal) of 4.23 µM and a GI50 (OVCAR-5 ovarian) of 2.67 µM. For the same compound, the TGI (OVCAR-5 ovarian) was 6.48 µM, the GI50 (HT29 colon) was 2.04 µM and the TGI (HT29 colon) was 3.88 µM. For the same compound, the GI50 (RXF 393 renal) was 1.95 µM, the TGI (RXF 393 renal) was 3.74 µM and the GI50 (A549 NSCLC) was 3.61 µM. The TGI (A549 NSCLC) was over 100 µM, the GI50 (SK-MEL-2 melanoma) was 3.81 µM and the TGI (SK-MEL-2 melanoma) was 11.4 µM. The GI50 (OVCAR-8 ovarian) was 2.85 µM, the TGI (OVCAR-8 ovarian) was over 100 µM and the GI50 (CAKI-1 renal) was 3.24 µM. The TGI (CAKI-1 renal) was 10.8 µM.

Reference: PubChem BioAssay (NCI)
